# From PubChem BioAssay (NCI)
#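 Here, GI50 denotes the concentration required for 50% inhibition of growth. TGI marks complete inhibition of growth.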
# Columns and labels:
# Assay in all cases: NCI tumour cell line growth inhibition, 384-well format
# [1] = tested on: 786-0 renal
# [2] = tested on: A549 NSCLC
# [3] = tested on: ACHN renal
# [4] = tested on: CCRF-CEM leukemia
# [5] = tested on: COLO 205 colon
# [6] = tested on: DU-145 prostate
# [7] = tested on: EKVX NSCLC
# [8] = tested on: HCC-2998 colon
# [9] = tested on: HL-60(TB) leukemia
# [10] = tested on: HOP-62 NSCLC
# [11] = tested on: HOP-92 NSCLC
# [12] = tested on: HS 578T breast
# [13] = tested on: HT29 colon
# [14] = tested on: IGROV1 ovarian
# [15] = tested on: K-562 leukemia
# [16] = tested on: KM12 colon
# [17] = tested on: M14 melanoma
# [18] = tested on: MALME-3M melanoma
# [19] = tested on: MCF7 breast
# [20] = tested on: MDA-MB-231 breast
# [21] = tested on: MDA-MB-435 melanoma
# [22] = tested on: MOLT-4 leukemia
# [23] = tested on: NCI-H226 lung
# [24] = tested on: NCI-H23 lung
# [25] = tested on: NCI-H460 NSCLC
# [26] = tested on: NCI-H522 lung
# [27] = tested on: NCI/ADR-RES ovarian
# [28] = tested on: OVCAR-3 ovarian
# [29] = tested on: OVCAR-4 ovarian
# [30] = tested on: OVCAR-5 ovarian
# [31] = tested on: OVCAR-8 ovarian
# [32] = tested on: RPMI-8226 leukemia
# [33] = tested on: SF-268 CNS
# [34] = tested on: SF-295 CNS
# [35] = tested on: SF-539 CNS
# [36] = tested on: SK-MEL-2 melanoma
# [37] = tested on: SK-MEL-28 melanoma
# [38] = tested on: SK-OV-3 ovarian
# [39] = tested on: SNB-75 CNS
# [40] = tested on: SR leukemia
# [41] = tested on: SW-620 colon
# [42] = tested on: T-47D breast
# [43] = tested on: TK-10 renal
# [44] = tested on: U251 glioblastoma
# [45] = tested on: UACC-257 melanoma
# [46] = tested on: UACC-62 melanoma
# [47] = tested on: UO-31 renal
compound,measurement,setting,value
CN(C)C(=O)c1cc2cnc(Nc3ccc(N4CCNCC4)cn3)nc2n1C1CCCC1,GI50,[1],6.77 µM
same,TGI,[1],36 µM
same,GI50,[2],23.5 µM
same,TGI,[2],> 84.1 µM
same,GI50,[3],5.81 µM
same,TGI,[3],46.7 µM
same,GI50,[4],2.39 µM
same,TGI,[4],> 34.4 µM
same,GI50,[5],7.64 µM
same,TGI,[5],30.1 µM
same,GI50,[6],16.7 µM
same,TGI,[6],43.9 µM
same,GI50,[7],30.1 µM
same,TGI,[7],> 73 µM
same,GI50,[8],29.2 µM
same,TGI,[8],> 100 µM
same,GI50,[9],0.866 µM
same,TGI,[9],26.3 µM
same,GI50,[10],29.2 µM
same,TGI,[10],67.6 µM
same,GI50,[11],11.9 µM
same,TGI,[11],57.4 µM
same,GI50,[12],33 µM
same,TGI,[12],> 58.5 µM
same,GI50,[13],24.9 µM
same,TGI,[13],> 51.6 µM
same,GI50,[14],26.2 µM
same,TGI,[14],98.8 µM
same,GI50,[15],10.8 µM
same,TGI,[15],29.7 µM
same,GI50,[16],2.51 µM
same,TGI,[16],35.5 µM
same,GI50,[17],30.2 µM
same,TGI,[17],> 89.2 µM
same,GI50,[18],11.1 µM
same,TGI,[18],31.2 µM
same,GI50,[19],23.3 µM
same,TGI,[19],40.7 µM
same,GI50,[20],4.09 µM
same,TGI,[20],33.7 µM
same,GI50,[21],52.2 µM
same,TGI,[21],> 100 µM
same,GI50,[22],0.73 µM
same,TGI,[22],6.31 µM
same,GI50,[23],8.83 µM
same,TGI,[23],58.1 µM
same,GI50,[24],25.3 µM
same,TGI,[24],61.1 µM
same,GI50,[25],12.3 µM
same,TGI,[25],> 61.5 µM
same,GI50,[26],29.5 µM
same,TGI,[26],82.2 µM
same,GI50,[27],> 100 µM
same,TGI,[27],> 100 µM
same,GI50,[28],33.1 µM
same,TGI,[28],61.7 µM
same,GI50,[29],30.4 µM
same,TGI,[29],> 94 µM
same,GI50,[30],10.8 µM
same,TGI,[30],85.3 µM
same,GI50,[31],37.5 µM
same,TGI,[31],74.9 µM
same,GI50,[32],0.607 µM
same,TGI,[32],27.4 µM
same,GI50,[33],24.8 µM
same,TGI,[33],46.6 µM
same,GI50,[34],23.1 µM
same,TGI,[34],57.4 µM
same,GI50,[35],22.2 µM
same,TGI,[35],68.2 µM
same,GI50,[36],16.8 µM
same,TGI,[36],35.7 µM
same,GI50,[37],37.5 µM
same,TGI,[37],> 66 µM
same,GI50,[38],> 80.2 µM
same,TGI,[38],> 100 µM
same,GI50,[39],24.5 µM
same,TGI,[39],55 µM
same,GI50,[40],0.507 µM
same,TGI,[40],1.97 µM
same,GI50,[41],9.02 µM
same,TGI,[41],> 65.6 µM
same,GI50,[42],9.8 µM
same,TGI,[42],> 46.4 µM
same,GI50,[43],27.3 µM
same,TGI,[43],> 100 µM
same,GI50,[44],30.8 µM
same,TGI,[44],> 46.4 µM
same,GI50,[45],47.6 µM
same,TGI,[45],> 69.7 µM
same,GI50,[46],18.2 µM
same,TGI,[46],> 63.7 µM
same,GI50,[47],13.8 µM
same,TGI,[47],> 100 µM
